The conditions of series [1]: administration of up to 100 mg, therapy of lateral sclerosis; cited from earlier work.
In a further series the test system is HaCaT keratinocytes. As to the kind of experiment: Proliferation of HaCaT keratinocytes (Cell Titer Viability Assay, luminescence). The series is classed as cell-based. The note with it: 48 hours; for inhibition of proliferation of keratinocytes: comparable to negative control. The procedure:
As further control cells were used, which were only incubated in KBM (KBM).
For this purpose 5×10^3 HaCaT keratinocytes were seeded into 60 wells of a 96 well-plate in 200 μl KBM/10% FCS each and incubated for 24 hours at 37° C. […] At the end of the second incubation period the medium was removed and the proliferation of cells was determined with the Cell Titer Viability Assay of Promega (#G7571/G7572) according to the manufacturer's instructions. A lowered luminescence with respect to the positive control (in RLU relative luminescence units) correlated with a lowered proliferation. Values obtained from the wells without cells were subtracted from the mean of the 6 wells with cells as background value. At least 4 independent experiments were carried out.

The text below walks through data of patent US20070190043A1 (Biofrontera AG, priority 2003, published 2007).

On to `Nc1nc2ccc(OC(F)(F)F)cc2s1` [Riluzole, 2-amino-6-(trifluoromethoxy)-benzothiazole], for which the adverse effect anestenia in series [1] is given as 18 % of the treated patients. In addition, in series [1], the adverse effect nausea is listed as 16 % of all treated patients. Moreover, the “inhibition of proliferation of keratinocytes” value with HaCaT keratinocytes (100 μmol/l Riluzole) and in the series with HaCaT keratinocytes (250 μmol/l Riluzole) was “complete inhibition of proliferation” each time. Besides, the “concentration at which an inhibition of the proliferation was already observed” value in the series on HaCaT keratinocytes (HaCaT keratinocytes, versus control KBM+10% FCS) turned out to be 1 µmol/L.
